Assay results: patent US9504673B2, “Agent for the prophylaxis and treatment of highly pathogenic infectious diseases” (priority 2009, dated 2016)
Several values for one entry are separate records, joined by “and”; a condition that tells them apart may be missing. Identical values can stand only once. Like-named read-outs stand apart in the source and are kept apart here.

Columns and labels:
[1] = system: influenza virus strain A/chicken/Kurgan/Russia/02/05 (H5N1); parameters: species or system white mice; details: mouse, in vivo, po
[2] = system: severe acute respiratory syndrome virus; parameters: species or system Syrian hamsters; details: hamster, in vivo, po
[3] = Acute toxicity study of glutaryl histamine; details: male, nonlinear white (outbred), mouse, in vivo, po

| SMILES | Death rate ([1]; 135 mg/kg) | Increase of mean lifetime Δ ([1]; 135 mg/kg) | Mean lifetime of animals in the group ([1]; 135 mg/kg) | Death rate ([1]; 5 mg/kg) | Deaths ([1]; 5 mg/kg) | Increase of mean lifetime Δ ([1]; 5 mg/kg) | Mean lifetime of animals in the group ([1]; 5 mg/kg) | Protective efficacy against death, % ([1]; 5 mg/kg) | Death rate ([1]; 15 mg/kg) | Increase of mean lifetime Δ ([1]; 15 mg/kg) | Mean lifetime of animals in the group ([1]; 15 mg/kg) | Protective efficacy against death, % ([1]; 15 mg/kg) | Therapeutic efficacy, % ([2]; 5 mg/kg) | Virus yield in the lungs at peak of infection (on day 4) 1 g PFU/ml ([2]; 5 mg/kg) | Virus yield in the lungs at peak of infection (on day 4) Δ, 1 g ([2]; 5 mg/kg) | Therapeutic efficacy, % ([2]; 15 mg/kg) [%] | Virus yield in the lungs at peak of infection (on day 4) 1 g PFU/ml ([2]; 15 mg/kg) | Virus yield in the lungs at peak of infection (on day 4) Δ, 1 g ([2]; 15 mg/kg) | LD50 [3] [mg/kg] |
| --- | --- | --- | --- | --- | --- | --- | --- | --- | --- | --- | --- | --- | --- | --- | --- | --- | --- | --- | --- |
| CCOC(=O)c1c(CSc2ccccc2)n(C)c2cc(Br)c(O)c(CN(C)C)c12 [Arbidol ®, reference compound] | 15/20 and 18/20 | 1.4 days and 1.1 days | 8.0 days and 7.2 days |  |  |  |  |  |  |  |  |  |  |  |  |  |  |  |  |
| O=C(O)CCCC(=O)NCCc1c[nH]cn1 [glutaryl histamine] |  |  |  | 12/20 | 11 | 2.7 days and 1.8 days | 10.9 days and 10.0 days | 45% and 40% | 12/20 and 13/20 | 2.4 days and 2.0 days | 11.0 days and 8.7 days | 40% and 35% | 20.0% and 30.0% | 7.5 1 g PFU/ml and 7.0 1 g PFU/ml | 0.8 1 g and 0.9 1 g | 40 | 3.8 1 g PFU/ml | 2.4 1 g | > 10000 |
